#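 Test compounds were applied to cells in 96-well plates for 48 hours at 5 doses. The concentration for full growth arrest is given as TGI.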
# Experiments:
# Experiment in all cases: NCI tumour cell line growth inhibition, 48 h
# [1] = system: BT-549 breast
# [2] = system: U251 CNS
# [3] = system: M14 melanoma
# [4] = system: SF-268 CNS
# [5] = system: MOLT-4 leukemia
# [6] = system: OVCAR-5 ovarian
# [7] = system: MCF7 breast
# [8] = system: LOX IMVI melanoma
# [9] = system: PC-3 prostate
# [10] = system: 786-0 renal
# [11] = system: COLO 205 colon
# [12] = system: SK-MEL-5 melanoma
# [13] = system: NCI-H226 lung
# [14] = system: SF-295 CNS
# [15] = system: SF-539 CNS
# [16] = system: ACHN renal
# [17] = system: SNB-75 CNS
# [18] = system: UO-31 renal
# [19] = system: HOP-62 NSCLC
# [20] = system: NCI-H460 lung
# [21] = system: UACC-257 melanoma
# [22] = system: HL-60(TB) leukemia
# [23] = system: A549 NSCLC
# [24] = system: K-562 leukemia
# [25] = system: RPMI-8226 leukemia
# [26] = system: SW-620 colon
# [27] = system: SK-MEL-28 melanoma
# [28] = system: TK-10 renal
# [29] = system: KM12 colon
# [30] = system: MDA-N
# [31] = system: NCI-H23 lung
# [32] = system: SK-OV-3 ovarian
# [33] = system: DU-145 prostate
# [34] = system: OVCAR-3 ovarian
# [35] = system: UACC-62 melanoma
# [36] = system: OVCAR-4 ovarian
# [37] = system: SNB-19 CNS
# [38] = system: CAKI-1 renal
# [39] = system: HOP-92 NSCLC
# [40] = system: MDA-MB-435
# [41] = system: HS 578T breast
# [42] = system: OVCAR-8 ovarian
# [43] = system: IGROV1 ovarian
# [44] = system: RXF 393 renal
# [45] = system: CCRF-CEM leukemia
# [46] = system: EKVX NSCLC
# [47] = system: HCT-15 colon
# [48] = system: NCI-H522 lung
# [49] = system: SK-MEL-2 melanoma
# [50] = system: MALME-3M melanoma
# [51] = system: HCT-116 colon
# [52] = system: MDA-MB-231 breast
# [53] = system: SN12C renal
# [54] = system: NCI/ADR-RES ovarian
# [55] = system: A498 renal
# [56] = system: T-47D breast
# [57] = system: HT29 colon
# [58] = system: HCC-2998 colon
smiles,measurement,setting,value
Nc1nc(N)c(N=Nc2ccc([As](=O)(O)O)c(O)c2)c(N)n1,TGI,[1],> 100 µM
same,TGI,[2],> 100 µM
same,TGI,[3],> 100 µM
same,TGI,[4],> 100 µM
same,TGI,[5],> 48.3 µM
same,TGI,[6],> 100 µM
same,TGI,[7],> 100 µM
same,TGI,[8],> 100 µM
same,TGI,[9],> 100 µM
same,TGI,[10],> 100 µM
same,TGI,[11],> 100 µM
same,TGI,[12],> 100 µM
same,TGI,[13],> 100 µM
same,TGI,[14],> 100 µM
same,TGI,[15],> 56.8 µM
same,TGI,[16],> 100 µM
same,TGI,[17],> 89.5 µM
same,TGI,[18],> 100 µM
same,TGI,[19],> 100 µM
same,TGI,[20],> 28.1 µM
same,TGI,[21],> 100 µM
same,TGI,[22],13.2 µM
same,TGI,[23],> 100 µM
same,TGI,[24],> 100 µM
same,TGI,[25],> 33.8 µM
same,TGI,[26],> 100 µM
same,TGI,[27],> 100 µM
same,TGI,[28],> 51.8 µM
same,TGI,[29],> 100 µM
same,TGI,[30],5.29 µM
same,TGI,[31],> 100 µM
same,TGI,[32],> 100 µM
same,TGI,[33],38.1 µM
same,TGI,[34],> 64.2 µM
same,TGI,[35],> 100 µM
same,TGI,[36],> 100 µM
same,TGI,[37],> 100 µM
same,TGI,[38],> 100 µM
same,TGI,[39],> 100 µM
same,TGI,[40],6.37 µM
same,TGI,[41],> 77.3 µM
same,TGI,[42],> 100 µM
same,TGI,[43],> 100 µM
same,TGI,[44],> 29.8 µM
same,TGI,[45],> 19.7 µM
same,TGI,[46],> 100 µM
same,TGI,[47],> 100 µM
same,TGI,[48],> 31 µM
same,TGI,[49],> 59.9 µM
same,TGI,[50],> 100 µM
same,TGI,[51],> 33.7 µM
same,TGI,[52],> 100 µM
same,TGI,[53],> 26.8 µM
same,TGI,[54],> 100 µM
same,TGI,[55],> 100 µM
same,TGI,[56],> 100 µM
same,TGI,[57],> 100 µM
NCCCCNCCCNC(=O)c1csc(-c2nc(CCN)sc2Cl)n1,TGI,[1],> 100 µM
same,TGI,[2],> 100 µM
same,TGI,[3],> 100 µM
same,TGI,[4],> 100 µM
same,TGI,[58],> 100 µM
same,TGI,[5],> 100 µM
same,TGI,[6],> 100 µM
same,TGI,[7],> 100 µM
same,TGI,[9],> 100 µM
same,TGI,[10],> 100 µM
same,TGI,[11],> 100 µM
same,TGI,[12],> 100 µM
same,TGI,[13],> 100 µM
same,TGI,[14],> 100 µM
same,TGI,[15],> 100 µM
same,TGI,[16],> 100 µM
same,TGI,[17],> 100 µM
same,TGI,[18],> 100 µM
same,TGI,[19],> 100 µM
same,TGI,[20],> 100 µM
same,TGI,[21],> 100 µM
same,TGI,[22],> 100 µM
same,TGI,[23],> 100 µM
same,TGI,[24],> 100 µM
same,TGI,[25],> 100 µM
same,TGI,[26],> 100 µM
same,TGI,[27],> 100 µM
same,TGI,[28],> 100 µM
same,TGI,[29],> 100 µM
same,TGI,[30],> 100 µM
same,TGI,[31],> 100 µM
same,TGI,[32],> 100 µM
same,TGI,[33],> 100 µM
same,TGI,[34],> 100 µM
same,TGI,[35],> 100 µM
same,TGI,[37],> 100 µM
same,TGI,[39],79.5 µM
same,TGI,[40],> 100 µM
same,TGI,[41],> 100 µM
same,TGI,[42],> 100 µM
same,TGI,[43],> 100 µM
same,TGI,[44],> 100 µM
same,TGI,[45],> 100 µM
same,TGI,[46],> 100 µM
same,TGI,[47],> 100 µM
same,TGI,[50],> 100 µM
same,TGI,[51],> 100 µM
same,TGI,[53],> 100 µM
same,TGI,[54],> 100 µM
same,TGI,[55],> 100 µM
same,TGI,[56],> 100 µM
same,TGI,[57],> 100 µM

# — PubChem BioAssay (NCI)
